Results on one compound are retold here after patent US5912183A, “Peptide inhibitors of mitogenesis and motogenesis” (Pharmacia & Upjohn S.p.A., priority 1993, dated 1999).

The test system of this test is N- and C-SH2 domains of p85. Kind of test: BIAcore inhibition of binding of GST-SH2 domains to immobilized PDGF receptor phosphopeptide Y751. Details: species or system bovine. The conditions noted are these: range of phosphopeptide concentrations; 25° C.; FIG. 7. On the procedure: FIG. 7. Evaluation of the relative affinities of phosphotyrosine 1313, 1349 and 1356 for the N- and C- SH2 domains of p85. Affinities were determined by biospecific interaction analysis with the BIAcore instrument (Jonsson, U., Fagerstam, L., Roos, H., Ronnberg, J., Sjolander, Stenber, E., Stahlberg, R. Urbaniczky, C., Ostlin, H., and Malmquist. 1991. Surface plasmon reasonance and microfluidics for real time biospecific interaction analysis. Biotechniques 11: 520-527; Jonsson, U. and M. Malmquist. 1992. Real time biospecific analysis. The integration of surface plasmon reasonance detection, general biospecific interface chemistry and microfluidics into one analytical system p. 291-336. In F. Turner (ed), Advances in Biosensors, vol. 2 JAI Press, London; Karlsson, R., Michaelsson, A., and L. Mattsson. 1991. Kinetic analysis of monoclonal antibody-antigen interactions with a new biosensor based analytical system. J. Immunol. Meth. 145: 229-246).
Relative affinities were determined by measuring the ability of the phosphopeptides to inhibit the interaction of the SH2 domains with an immobilized phosphopeptide (DMSKDESVDY*VPMLDMK) (SEQ. ID NO: 26) which includes Y751 in the human PDGF receptor. Panel A and B show the results of these measurements, expressed as % inhibition of binding to phosphopeptide Y751.
GST-SH2 domain fusion proteins. The N- and C-SH2 domains of the bovine PI 3-kinase p85 subunit (amino acids 314-431 and 612-722) were obtained by polymerase chain reaction and cloned into the pGEX-2 bacterial expression vector (Smith, D. B., and Johnson K. S., Gene 67: 31-40 (1988).
Glutathione-S-transferase (GST)-SH2 fusion proteins were purified from bacterial lysates by glutathione affinity chromatography (Panayotou, G., et al. EMBO J., 11: 4261-4272 (1992)). Amino acid analysis on an Applied Biosystems 420A analyzer was used to determine the concentration of the recombinant proteins.
Analysis of the interaction of Y1349 and Y1356 with the p85 N- and C- SH2 domains using the BIAcore. […]
In general terms: Surface plasmon resonance follows binding to a sensor surface in real time, without labels.

Residues, ends and D or L forms follow the SMILES beside them.

Turning to `CSCC[C@H](NC(=O)[C@@H](NC(=O)[C@H](CCC(=O)O)NC(=O)[C@@H](N)Cc1ccc(OP(=O)(O)O)cc1)C(C)C)C(=O)N[C@@H](CC(C)C)C(=O)N[C@@H](CCCCN)C(=O)N[C@@H](CS)C(=O)N[C@@H](Cc1c[nH]c2ccccc12)C(=O)O` [H-Tyr*-Glu-Val-Met-Leu-Lys-Cys-Trp-OH] (HELM PEPTIDE1{[N[C@@H](Cc1ccc(OP(=O)(O)O)cc1)C(=O)[*:2]].E.V.M.L.K.C.W}$$$$V2.0), the “Apparent relative affinity: inhibition of binding of p85 N- and C-SH2 domains to phosphopeptide Y751” value was “highest apparent affinity”.
